Test system: SUM149PT spheroids with HUVEC/MSC, viability
Assay: Anticancer human tumor SUM149PT cell line growth inhibition [GQUAD];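 also: spheroids exposed to drugs for seven days before readout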;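 as to viability, T/C: percent viability relative to DMSO vehicle control taken as 100%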
Details: for IC50: curve of first compound; for viability, T/C: stronger effect = lower value
In short: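 Multi-cell-type spheroids of tumor cells with HUVEC and mesenchymal stem cells, treated with drug combinations. Concentrations descend in half-log steps from near clinical Cmax, or from 10 microM where Cmax is unknown; viability read-out.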

[1] = second compound 0.0316 µM, first compound 0.0316 µM
[2] = second compound 0.0316 µM, first compound 0.1 µM
[3] = second compound 0.0316 µM, first compound 0.316 µM
[4] = second compound 0.0316 µM, first compound 1 µM
[5] = second compound 0.0316 µM, first compound 3.16 µM
[6] = second compound 0.0316 µM, first compound 10 µM
[7] = second compound 0.1 µM, first compound 0.0316 µM
[8] = second compound 0.1 µM, first compound 0.1 µM
[9] = second compound 0.1 µM, first compound 0.316 µM
[10] = second compound 0.1 µM, first compound 1 µM
[11] = second compound 0.1 µM, first compound 3.16 µM
[12] = second compound 0.1 µM, first compound 10 µM
[13] = second compound 0.316 µM, first compound 0.0316 µM
[14] = second compound 0.316 µM, first compound 0.1 µM
[15] = second compound 0.316 µM, first compound 0.316 µM
[16] = second compound 0.316 µM, first compound 1 µM
[17] = second compound 0.316 µM, first compound 3.16 µM
[18] = second compound 0.316 µM, first compound 10 µM
[19] = second compound 1 µM, first compound 0.0316 µM
[20] = second compound 1 µM, first compound 0.1 µM
[21] = second compound 1 µM, first compound 0.316 µM
[22] = second compound 1 µM, first compound 1 µM
[23] = second compound 1 µM, first compound 3.16 µM
[24] = second compound 1 µM, first compound 10 µM
[25] = second compound 3.16 µM, first compound 0.0316 µM
[26] = second compound 3.16 µM, first compound 0.1 µM
[27] = second compound 3.16 µM, first compound 0.316 µM
[28] = second compound 3.16 µM, first compound 1 µM
[29] = second compound 3.16 µM, first compound 3.16 µM
[30] = second compound 3.16 µM, first compound 10 µM
[31] = second compound 10 µM, first compound 0.0316 µM
[32] = second compound 10 µM, first compound 0.1 µM
[33] = second compound 10 µM, first compound 0.316 µM
[34] = second compound 10 µM, first compound 1 µM
[35] = second compound 10 µM, first compound 3.16 µM
[36] = second compound 10 µM, first compound 10 µM

**Q.** For `CC(=O)O[C@H]1C(=O)[C@@]2(C)[C@H]([C@H](OC(=O)c3ccccc3)[C@]3(O)C[C@H](OC(=O)[C@H](O)[C@@H](NC(=O)c4ccccc4)c4ccccc4)C(C)=C1C3(C)C)[C@]1(OC(C)=O)CO[C@@H]1C[C@@H]2O` + CN(C)c1ccc(Nc2c3ccc(NC(=O)CCN4CCCC4)cc3nc3cc(NC(=O)CCN4CCCC4)ccc23)cc1, which IC50 (second compound 0.0316 µM) is on record?
**A.** < 0.0316 µM

**Q.** And the IC50 (second compound 0.1 µM)?
**A.** < 0.0316 µM

**Q.** And the IC50 (second compound 0.316 µM)?
**A.** < 0.0316 µM

**Q.** And the IC50 (second compound 1 µM)?
**A.** < 0.0316 µM

**Q.** What about the IC50 (second compound 3.16 µM) of the same molecule?
**A.** < 0.0316 µM

**Q.** What about the IC50 (second compound 10 µM) of the same molecule?
**A.** < 0.0316 µM

**Q.** And the viability, T/C [1]?
**A.** 31.9%

**Q.** And the viability, T/C [2]?
**A.** 25.3%

**Q.** What about the viability, T/C [3] of the same molecule?
**A.** 23.8%

**Q.** What about the viability, T/C [4] of the same molecule?
**A.** 19.5%

**Q.** And the viability, T/C [5]?
**A.** 19.8%

**Q.** And the viability, T/C [6]?
**A.** 23.6%

**Q.** What about the viability, T/C [7] of the same molecule?
**A.** 32.8%

**Q.** And the viability, T/C [8]?
**A.** 24.7%

**Q.** What about the viability, T/C [9] of the same molecule?
**A.** 21.6%

**Q.** And the viability, T/C [10]?
**A.** 17.8%

**Q.** What about the viability, T/C [11] of the same molecule?
**A.** 19.6%

**Q.** And the viability, T/C [12]?
**A.** 25.7%

**Q.** What about the viability, T/C [13] of the same molecule?
**A.** 30.6%

**Q.** What about the viability, T/C [14] of the same molecule?
**A.** 25.6%

**Q.** What about the viability, T/C [15] of the same molecule?
**A.** 22.8%

**Q.** And the viability, T/C [16]?
**A.** 18.3%

**Q.** And the viability, T/C [17]?
**A.** 17.2%

**Q.** And the viability, T/C [18]?
**A.** 22.8%

**Q.** What about the viability, T/C [19] of the same molecule?
**A.** 29.6%

**Q.** What about the viability, T/C [20] of the same molecule?
**A.** 24.4%

**Q.** And the viability, T/C [21]?
**A.** 16.5%

**Q.** And the viability, T/C [22]?
**A.** 13.8%

**Q.** What about the viability, T/C [23] of the same molecule?
**A.** 17%

**Q.** And the viability, T/C [24]?
**A.** 19.2%

**Q.** And the viability, T/C [25]?
**A.** 27.7%

**Q.** And the viability, T/C [26]?
**A.** 21.1%

**Q.** And the viability, T/C [27]?
**A.** 17.5%

**Q.** And the viability, T/C [28]?
**A.** 12.9%

**Q.** What about the viability, T/C [29] of the same molecule?
**A.** 15.7%

**Q.** And the viability, T/C [30]?
**A.** 16.2%

**Q.** And the viability, T/C [31]?
**A.** 26.8%

**Q.** And the viability, T/C [32]?
**A.** 23.3%

**Q.** What about the viability, T/C [33] of the same molecule?
**A.** 15.8%

**Q.** And the viability, T/C [34]?
**A.** 14.5%

**Q.** And the viability, T/C [35]?
**A.** 15.7%

**Q.** And the viability, T/C [36]?
**A.** 18.2%

**Q.** Which results are given for `CC[C@@]1(O)C(=O)OCc2c1cc1n(c2=O)Cc2cc3c(CN(C)C)c(O)ccc3nc2-1` + CN(C)c1ccc(Nc2c3ccc(NC(=O)CCN4CCCC4)cc3nc3cc(NC(=O)CCN4CCCC4)ccc23)cc1?
**A.** IC50 (second compound 0.0316 µM): > 0.316 µM; IC50 (second compound 0.1 µM): > 0.316 µM; IC50 (second compound 0.316 µM): > 0.316 µM; IC50 (second compound 1 µM): 0.206 µM; IC50 (second compound 3.16 µM): 0.084 µM; IC50 (second compound 10 µM): 0.0981 µM; viability, T/C (second compound 0.0316 µM, first compound 0.000999 µM): 110%; viability, T/C (second compound 0.0316 µM, first compound 0.00316 µM): 87.6%; viability, T/C (second compound 0.0316 µM, first compound 0.00999 µM): 109%; viability, T/C [1]: 82.2%; viability, T/C (second compound 0.0316 µM, first compound 0.0999 µM): 55.9%; viability, T/C [3]: 57%; viability, T/C (second compound 0.1 µM, first compound 0.000999 µM): 102%; viability, T/C (second compound 0.1 µM, first compound 0.00316 µM): 102%; viability, T/C (second compound 0.1 µM, first compound 0.00999 µM): 103%; viability, T/C [7]: 88.4%; viability, T/C (second compound 0.1 µM, first compound 0.0999 µM): 56%; viability, T/C [9]: 57.2%; viability, T/C (second compound 0.316 µM, first compound 0.000999 µM): 95.6%; viability, T/C (second compound 0.316 µM, first compound 0.00316 µM): 92.1%; viability, T/C (second compound 0.316 µM, first compound 0.00999 µM): 90%; viability, T/C [13]: 83.6%; viability, T/C (second compound 0.316 µM, first compound 0.0999 µM): 51.6%; viability, T/C [15]: 52.9%; viability, T/C (second compound 1 µM, first compound 0.000999 µM): 87.8%; viability, T/C (second compound 1 µM, first compound 0.00316 µM): 88.2%; viability, T/C (second compound 1 µM, first compound 0.00999 µM): 80.2%; viability, T/C [19]: 78.3%; viability, T/C (second compound 1 µM, first compound 0.0999 µM): 54%; viability, T/C [21]: 47.6%; viability, T/C (second compound 3.16 µM, first compound 0.000999 µM): 94.7%; viability, T/C (second compound 3.16 µM, first compound 0.00316 µM): 84.4%; viability, T/C (second compound 3.16 µM, first compound 0.00999 µM): 102%; viability, T/C [25]: 69.7%; viability, T/C (second compound 3.16 µM, first compound 0.0999 µM): 47.9%; viability, T/C [27]: 45.1%; viability, T/C (second compound 10 µM, first compound 0.000999 µM): 92.5%; viability, T/C (second compound 10 µM, first compound 0.00316 µM): 90%; viability, T/C (second compound 10 µM, first compound 0.00999 µM): 86.4%; viability, T/C [31]: 74.2%; viability, T/C (second compound 10 µM, first compound 0.0999 µM): 48.7%; viability, T/C [33]: 44.9%

**Q.** Which results are given for `COc1cc(C2c3cc4c(cc3C(OC3OC5COC(C)OC5C(O)C3O)C3COC(=O)C23)OCO4)cc(OC)c1O` (stereo unspecified) + CN(C)c1ccc(Nc2c3ccc(NC(=O)CCN4CCCC4)cc3nc3cc(NC(=O)CCN4CCCC4)ccc23)cc1?
**A.** IC50 (second compound 0.0316 µM): 1.27 µM; IC50 (second compound 0.1 µM): 1.26 µM; IC50 (second compound 0.316 µM): 1.31 µM; IC50 (second compound 1 µM): 0.732 µM; IC50 (second compound 3.16 µM): 0.652 µM; IC50 (second compound 10 µM): 0.619 µM; viability, T/C [1]: 107%; viability, T/C [2]: 84.8%; viability, T/C [3]: 62.9%; viability, T/C [4]: 55.2%; viability, T/C [5]: 44.8%; viability, T/C [6]: 21.6%; viability, T/C [7]: 102%; viability, T/C [8]: 88.8%; viability, T/C [9]: 59.5%; viability, T/C [10]: 55%; viability, T/C [11]: 44.7%; viability, T/C [12]: 21.4%; viability, T/C [13]: 87.8%; viability, T/C [14]: 78.1%; viability, T/C [15]: 59.8%; viability, T/C [16]: 59.5%; viability, T/C [17]: 40.2%; viability, T/C [18]: 18.1%; viability, T/C [19]: 87.4%; viability, T/C [20]: 75.3%; viability, T/C [21]: 54.4%; viability, T/C [22]: 48.1%; viability, T/C [23]: 36.8%; viability, T/C [24]: 20.5%; viability, T/C [25]: 86.6%; viability, T/C [26]: 74.6%; viability, T/C [27]: 49.7%; viability, T/C [28]: 48%; viability, T/C [29]: 37.4%; viability, T/C [30]: 17.6%; viability, T/C [31]: 85.9%; viability, T/C [32]: 68.5%; viability, T/C [33]: 49.1%; viability, T/C [34]: 48.7%; viability, T/C [35]: 41%; viability, T/C [36]: 18.3%

— PubChem BioAssay AID2060484 (Molecular Pharmacology Branch, DTP, NCI, 2025)
